From paper PMC12652222 (International Journal of Molecular Sciences, 2025)
“And” between values parts separate entries of the source, which are not always exact repeats. Identical values can stand only once.

Columns and labels:
[1] = Total antioxidant capacity (TAC); assay type: biochemical; conditions: mean ± SE, n = 3
Protocol: (§1) The antioxidant activity was assessed using the iron reducing power (IRP) and the total antioxidant capacity (TAC). Ascorbic acid served as a standard to calculate the inhibition percentages (%) and the median inhibitory concentration (IC50) of each tested compound against the following radicals: nitric oxide (NO), hydroxyl (OH), hydrogen peroxide (H2O2), ABTS [79], and DPPH [80].

[2] = Iron-reducing power (IRP); assay type: biochemical; conditions: mean ± SE, n = 3
Protocol: as §1

DPPH radical scavenging = assay type: biochemical; conditions: mean ± SE, n = 3; for DPPH (%): inhibition % at 20 µg/mL
Protocol: as §1

ABTS radical scavenging = assay type: biochemical; conditions: mean ± SE, n = 3; for ABTS (%): inhibition % at 20 µg/mL
Protocol: as §1

[3] = Nitric oxide (NO) radical scavenging; assay type: biochemical; conditions: mean ± SE, n = 3; for NO (%): inhibition % at 20 µg/mL
Protocol: as §1

[4] = Hydroxyl (OH) radical scavenging; assay type: biochemical; conditions: mean ± SE, n = 3; for OH (%): inhibition % at 20 µg/mL
Protocol: as §1

[5] = Hydrogen peroxide (H2O2) scavenging; assay type: biochemical; conditions: mean ± SE, n = 3; for H2O2 (%): inhibition % at 20 µg/mL
Protocol: as §1

[6] = target: acetylcholinesterase (AChE) (Homo sapiens, UniProt P22303); assay: biochemical; conditions: mean ± SE, n = 3; for IC50: read-out: AChE IC50 (µg/mL) (converted)
Sequence of acetylcholinesterase (AChE) (P22303 32-614, species assumed): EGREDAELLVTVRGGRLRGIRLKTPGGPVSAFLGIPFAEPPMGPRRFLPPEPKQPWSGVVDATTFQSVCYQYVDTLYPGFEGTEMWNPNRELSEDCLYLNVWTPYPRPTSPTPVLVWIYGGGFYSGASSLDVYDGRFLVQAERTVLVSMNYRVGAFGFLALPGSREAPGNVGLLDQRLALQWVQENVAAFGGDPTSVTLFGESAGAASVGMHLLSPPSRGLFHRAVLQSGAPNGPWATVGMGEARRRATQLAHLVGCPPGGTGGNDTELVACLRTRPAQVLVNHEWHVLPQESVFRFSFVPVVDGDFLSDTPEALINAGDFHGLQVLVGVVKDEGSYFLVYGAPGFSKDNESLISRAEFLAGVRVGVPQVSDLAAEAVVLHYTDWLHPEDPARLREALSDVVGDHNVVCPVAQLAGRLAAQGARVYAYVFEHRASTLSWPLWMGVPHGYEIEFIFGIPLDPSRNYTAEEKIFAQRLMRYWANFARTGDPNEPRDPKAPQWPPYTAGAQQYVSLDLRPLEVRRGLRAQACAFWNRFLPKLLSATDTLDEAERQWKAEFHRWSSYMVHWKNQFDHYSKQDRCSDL
Protocol: The inhibition percentage and IC50 of the acetylcholinesterase (AChE) enzyme were measured using the Ellman method.

protein denaturation = assay: Protein denaturation inhibition (anti-arthritic); assay type: biochemical; design: concentration or dose not given beside the values; conditions: mean ± SE, n = 3
Protocol: (§2) Anti-arthritic activity was evaluated using diclofenac sodium as the reference drug. The inhibition percentage and IC50 were determined for protein denaturation and the proteinase enzyme.

proteinase enzyme = assay: Proteinase inhibition (anti-arthritic); assay type: biochemical; design: Proteinase Inhibition (%): concentration or dose not given beside the values; conditions: mean ± SE, n = 3
Protocol: as §2

α-amylase = target: T1, α-amylase (Homo sapiens, UniProt P04746); assay: α-Amylase inhibition; assay type: biochemical; conditions: read-out: α-Amylase Inhibition (%)
T1 sequence (P04746 16-511): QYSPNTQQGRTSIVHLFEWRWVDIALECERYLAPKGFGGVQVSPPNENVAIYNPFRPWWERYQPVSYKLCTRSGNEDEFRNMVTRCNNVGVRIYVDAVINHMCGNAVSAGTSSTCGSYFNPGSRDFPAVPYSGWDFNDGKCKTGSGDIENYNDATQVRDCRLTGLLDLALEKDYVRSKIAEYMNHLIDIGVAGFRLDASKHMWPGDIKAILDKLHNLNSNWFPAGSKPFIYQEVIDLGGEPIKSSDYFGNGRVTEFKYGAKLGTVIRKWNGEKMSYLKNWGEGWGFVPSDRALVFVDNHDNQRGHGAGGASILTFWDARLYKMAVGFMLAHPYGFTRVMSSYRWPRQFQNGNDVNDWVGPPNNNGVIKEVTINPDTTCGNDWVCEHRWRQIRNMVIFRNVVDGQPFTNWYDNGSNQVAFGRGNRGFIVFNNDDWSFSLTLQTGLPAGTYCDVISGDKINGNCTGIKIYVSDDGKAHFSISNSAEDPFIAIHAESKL
Protocol: (§3) The IC50 and inhibition percentages (Inhib. %) of the enzymes α-amylase and α-glucosidase were calculated.

α-glucosidase = assay: α-Glucosidase inhibition; assay type: biochemical
Protocol: as §3

O=c1/c(=C\[C@H](O)[C@@H](O)[C@H](O)CO)sc2nc3sc4c(c3c(=O)n12)CCC4 [7d, (E)-2-((2S,3R,4R)-2,3,4,5-tetrahydroxypentylidene)-7,8-dihydro-5H,6H-cyclopenta [4,5]thieno [2,3-d]thiazolo [3,2-a]-pyrimidine-3,5(2H)-dione]
TAC (mg Gallic Acid/g) [1]: 20.09 ± 0.23 mg Gallic Acid/g | IRP [2]: 12.94 ± 0.23 µg/mL | DPPH (%) (DPPH radical scavenging): 16.69 ± 0.23% | DPPH radical scavenging IC50 (DPPH radical scavenging): 23.28 ± 0.49 µg/mL | ABTS (%) (ABTS radical scavenging): 19.84 ± 0.23% | ABTS radical scavenging IC50 (ABTS radical scavenging): 16.31 ± 0.16 µg/mL | NO (%) [3]: 10.94 ± 0.23% | NO radical scavenging IC50 [3]: 37.06 ± 1.13 µg/mL | OH (%) [4]: 9.51 ± 0.20% | OH radical scavenging IC50 [4]: 49.77 ± 0.65 µg/mL | H2O2 (%) [5]: 10.65 ± 0.22% | H2O2 scavenging IC50 [5]: 55.36 ± 1.03 µg/mL | inhibition at 20 µg/mL [6]: 4.4 ± 0.14% | IC50 [6]: 165 µM | Protein Denaturation Inhibition (%) (protein denaturation): 13.82 ± 0.19% | Proteinase IC50 (proteinase enzyme): 48.10 ± 0.46 µg/mL | Proteinase Inhibition (%) (proteinase enzyme): 9.65 ± 0.19% | inhibition at 20 µg/mL (α-amylase): 15.9 ± 0.22% | α-Glucosidase IC50 (α-glucosidase): 23.09 ± 0.41 µg/mL

O=c1/c(=C\[C@@H](O)[C@@H](O)[C@H](O)[C@H](O)CO)sc2nc3sc4c(c3c(=O)n12)CCC4 [7b, (E)-2-((2R,3R,4R,5R)-2,3,4,5,6-pentahydroxyhexylidene)-7,8-dihydro-5H,6H-cyclopenta [4,5]thieno [2,3-d]thiazolo [3,2-a]pyrimidine-3,5(2H)-dione]
TAC (mg Gallic Acid/g) [1]: 21.59 ± 0.25 mg Gallic Acid/g | IRP [2]: 14.44 ± 0.25 µg/mL | DPPH (%) (DPPH radical scavenging): 18.19 ± 0.25% | DPPH radical scavenging IC50 (DPPH radical scavenging): 21.36 ± 0.44 µg/mL | ABTS (%) (ABTS radical scavenging): 21.34 ± 0.25% | ABTS radical scavenging IC50 (ABTS radical scavenging): 15.17 ± 0.15 µg/mL | NO (%) [3]: 12.44 ± 0.25% | NO radical scavenging IC50 [3]: 32.58 ± 0.96 µg/mL | OH (%) [4]: 10.82 ± 0.21% | OH radical scavenging IC50 [4]: 43.75 ± 0.52 µg/mL | H2O2 (%) [5]: 12.12 ± 0.24% | H2O2 scavenging IC50 [5]: 48.67 ± 0.85 µg/mL | inhibition at 20 µg/mL [6]: 5.14 ± 0.16% | IC50 [6]: 131 µM | Protein Denaturation Inhibition (%) (protein denaturation): 15.06 ± 0.20% | Proteinase IC50 (proteinase enzyme): 42.61 ± 0.37 µg/mL | Proteinase Inhibition (%) (proteinase enzyme): 10.89 ± 0.20% | inhibition at 20 µg/mL (α-amylase): 17.3 ± 0.24% | α-Glucosidase IC50 (α-glucosidase): 19.96 ± 0.34 µg/mL

O=c1/c(=C\[C@H](O)[C@@H](O)[C@H](O)[C@H](O)CO)sc2nc3sc4c(c3c(=O)n12)CCC4 [7a, (E)-2-((2S,3R,4R,5R)-2,3,4,5,6-pentahydroxyhexylidene)-7,8-dihydro-5H,6H-cyclopenta-[4,5]thieno [2,3-d]thiazolo [3,2-a]pyrimidine-3,5(2H)-dione]
TAC (mg Gallic Acid/g) [1]: 17.44 mg Gallic Acid/g and 17.44 ± 0.22 mg Gallic Acid/g | IRP [2]: 10.29 µg/mL and 10.29 ± 0.22 µg/mL | DPPH (%) (DPPH radical scavenging): 14.04 ± 0.22% | ABTS (%) (ABTS radical scavenging): 17.19 ± 0.22% | ABTS radical scavenging IC50 (ABTS radical scavenging): 18.83 ± 0.22 µg/mL | NO (%) [3]: 8.29 ± 0.22% | NO radical scavenging IC50 [3]: 48.89 ± 0.78 µg/mL | OH (%) [4]: 7.21 ± 0.19% | OH radical scavenging IC50 [4]: 65.77 ± 2.12 µg/mL | H2O2 (%) [5]: 8.07 ± 0.21% | H2O2 scavenging IC50 [5]: 73.10 ± 1.67 µg/mL | inhibition at 20 µg/mL [6]: 5.75 ± 0.18% | IC50 [6]: 117 µM | Protein Denaturation Inhibition (%) (protein denaturation): 11.62 ± 0.18% | Proteinase IC50 (proteinase enzyme): 62.33 ± 1.77 µg/mL | Proteinase Inhibition (%) (proteinase enzyme): 7.45 ± 0.18% | inhibition at 20 µg/mL (α-amylase): 13.4 ± 0.21% | α-Glucosidase IC50 (α-glucosidase): 31.92 ± 0.89 µg/mL

O=c1/c(=C\[C@H](O)[C@@H](O)[C@@H](O)[C@H](O)CO)sc2nc3sc4c(c3c(=O)n12)CCC4 [7c, (E)-2-((2S,3R,4S,5R)-2,3,4,5,6-pentahydroxyhexylidene)-7,8-dihydro-5H,6H-cyclopenta [4,5]thieno [2,3-d]thiazolo [3,2-a]-pyrimidine-3,5(2H)-dione]
TAC (mg Gallic Acid/g) [1]: 20.40 ± 0.26 mg Gallic Acid/g | IRP [2]: 13.25 ± 0.26 µg/mL | DPPH (%) (DPPH radical scavenging): 17.00 ± 0.26% | DPPH radical scavenging IC50 (DPPH radical scavenging): 22.84 ± 0.23 µg/mL | ABTS (%) (ABTS radical scavenging): 20.15 ± 0.26% | ABTS radical scavenging IC50 (ABTS radical scavenging): 16.06 ± 0.19 µg/mL | NO (%) [3]: 11.25 ± 0.26% | NO radical scavenging IC50 [3]: 36.00 ± 0.45 µg/mL | OH (%) [4]: 9.78 ± 0.22% | OH radical scavenging IC50 [4]: 48.42 ± 1.40 µg/mL | H2O2 (%) [5]: 10.96 ± 0.25% | H2O2 scavenging IC50 [5]: 53.83 ± 1.05 µg/mL | inhibition at 20 µg/mL [6]: 5.87 ± 0.19% | IC50 [6]: 115 µM | Protein Denaturation Inhibition (%) (protein denaturation): 14.08 ± 0.21% | Proteinase IC50 (proteinase enzyme): 46.88 ± 1.21 µg/mL | Proteinase Inhibition (%) (proteinase enzyme): 9.91 ± 0.21% | inhibition at 20 µg/mL (α-amylase): 16.2 ± 0.24% | α-Glucosidase IC50 (α-glucosidase): 22.37 ± 0.53 µg/mL
